Assay results reported in US20210199657A1, “I[…] AND USE THEREOF” (priority 2016, published 2021).

How the values were obtained:
[1] = test system: negative pool (serum of individuals not suffering from tuberculosis); assay: ELISA of peptides on negative pool of samples; type: binding, human; conditions: 450 nm
[2] = test system: antibodies contained in pools of serums from patients suffering from active tuberculosis; assay: ELISA screening of peptides on pools of serums from patients with active TB (ratio R); conditions: for ratio R: for 3 of the 4 serums tested
Protocol: In order to determine which peptides are of interest, a ratio R is calculated, the ratio R being the normalized measurement value of the immune complex formation, relative to the respective background noises of the serums and components used to detect the immune complexes, to, or divided by, the normalized measurement value obtained from the sample derived from a healthy individual relative to the respective background noises of the serums and components used to detect the immune complexes.
In order to determine the immunogenicity of the peptides, they are tested using the following ELISA test:
The peptides are fixed on a Maxisorp (high binding) plate: Incubation overnight at 4° C., concentration of the protein in μg/ml from 20 to 50.
The wells are rinsed with 300 μL of phosphate buffered saline (PBS).
The “wells” are blocked for 2 hours at ambient temperature (19° C.-25° C.) with 200 μL of bovine serum albumin (BSA) 2% and 0.01% of Tween 20.
The wells are rinsed with 200 μL of PBS.
One deposits 100 μL of serums from patients suffering from active TA diluted at 1/100th in blocking solution and incubates for one hour at 37° C.
Perform 3 washes (300 μL) PBS-Tween 20 (0.05%).
One adds 100 μL of antibodies conjugated with peroxidase, diluted at 1/20,000 with blocking solution and incubates for 1 h at 37° C.
One adds 100 μL of 3,3′,5,5′-tetramethylbenzidine (TMB) and incubates for 20 minutes in the dark.
One deposits 50 μL of sulfuric acid at 1N.
A spectrophotometer is used at 450 nm to read the quantity of TMB converted by the peroxidase (indicative of the formation of an immune complex between the peptides and the antibodies contained in the serum).

Row | Sequence | OD Negative pool [1] | ratio R [2] | ratio ([2]; for both pools of patients) | Ratio Positive pool 1 ([2]; positive pool 1) | Ratio Positive pool 2 ([2]; positive pool 2)
1 | CNNGDPICSDGNRWR (derived from Rv3452) [Peptide D7] | 0.303 | greater than 1.5 | > 1.5 | 1.7 | 1.7
2 | DADARVAVPRRDDL (DADARVAVPGRRDDL; derived from LipW) [Peptide W7] |  | greater than 1.5 |  |  | 
3 | TAACPDAEWFARGR (TAACPDAEVVFARGR; derived from Rv2301) [Peptide Z1] |  | greater than 1.5 |  |  | 
